Test results: US20160135468A1, “A Composition for Enhanced Biocidal Activity and Water Purification Device on the Same” (INDIAN INSTITUTE OF TECHNOLOGY, priority 2013, published 2016)

Legend:
[1] = 25° C.; cited from earlier work
E. coli [2] = settings: cited from earlier work
S. aureus (MTCC 96) = experiment: S. aureus killing efficiency (Example 6); assay type: cell-based
Experimental: In an aspect, 100 mL of synthetic water (typically containing E-coli concentration of 1×10^5 CFU/mL, unless otherwise mentioned) was separately shaken with Ag^+ and Ag^+/CO3^2−. Synthetic challenge water contains all the ions as prescribed by US NSF for challenge water studies. Source of carbonate ion is chosen one amongst the following: sodium carbonate, potassium carbonate or ammonium carbonate or a combination thereof. Source of Ag^+ is chosen one amongst the following: silver nitrate, silver acetate, silver sulfate, silver fluoride or a combination thereof. 1 mL of the sample was plated along with nutrient agar on a sterile petridish using the pour plate method after 1 h. After 48 hours of incubation of plating at 37° C., the colonies were counted and recorded.

E. coli [3] = experiment: Bacterial killing efficiency in sea salt containing water (Example 2); assay type: cell-based; settings: Ag^+ 50 ppb (composition with CO3^2− 20 ppm), input 1×10^5 CFU/mL, 1 h standing
Experimental: In an aspect, 100 mL of synthetic water (typically containing E. coli concentration of 1×10^5 CFU/mL, unless otherwise mentioned) with Ag^+ (50 ppb) and Ag^+ (50 ppb)/CO3^2− (20 ppm) was separately shaken with different concentrations of sea salt. […] Synthetic challenge water contains all the ions as prescribed by US NSF for challenge water studies. Typically, one hour of standing time, unless otherwise mentioned, is provided for the exposure of microorganisms to the biocidal composition. After one hour of standing, 1 mL from the samples was plated along with agar on a sterile petridish using the pour plate method.

E-coli [4] = experiment: Sterility of stored treated water (Example 7); assay type: cell-based; settings: 24 h storage
E. coli [5] = experiment: Bacterial killing efficiency with varying humic acid (Example 4); assay type: cell-based
Experimental: In an aspect, 100 mL of synthetic water samples (typically containing bacterial concentration of 1×10^5 CFU/mL, unless otherwise mentioned) containing varying concentrations of humic acid were separately shaken with Ag^+(50 ppb) and Ag^+(50 ppb)/CO3^2−(20 ppm). Synthetic challenge water contains all the ions as prescribed by US NSF for challenge water studies. […] After one hour of standing, 1 mL from the samples was plated along with agar on a sterile petridish using pour plate method.

S. aureus = settings: 50 ppb silver ion; input 10^7 CFU/mL; cited from earlier work
MS2 bacteriophage [6] = experiment: Virus killing efficiency at higher virus input load (Example 11); assay type: cell-based; settings: input virus concentration higher than 10^3 PFU/mL; silver ion alone
Experimental: Synthetic challenge water contains all the ions as prescribed by US NSF for challenge water studies. […] After one hour of contact time, 1 mL of the sample along with soft agar was plated on a sterile petridish using plaque assay method.

MS2 bacteriophage [7] = experiment: Virus killing efficiency, plaque assay (Example 9); assay type: cell-based
MS2 bacteriophage [8] = experiment: Kinetics of virus killing efficiency (Example 10); assay type: cell-based
Experimental: Synthetic water having the TDS between 300-500 ppm and pH=7±0.2 was used in the study. […] 1 mL of the sample along with soft agar was plated on a sterile petridish using plaque assay method after 15 min, 30 min, 45 min and 60 min of contact time.

E. coli [9] = experiment: Bacterial killing efficiency at low silver ion concentration (Example 3); assay type: cell-based
Text: This example describes the method of measuring the bacterial killing efficiency of the composition in comparison to silver ion, when low concentration of silver ion is used. […] Synthetic challenge water contains all the ions as prescribed by US NSF for challenge water studies. Source of carbonate ion is chosen one amongst the following: sodium carbonate, potassium carbonate or ammonium carbonate or a combination thereof. Source of Ag^+ is chosen one amongst the following: silver nitrate, silver acetate, silver sulfate, silver fluoride or a combination thereof. After one hour of standing, 1 mL from the samples was plated along with agar on a sterile petridish using pour plate method.

E-coli [10] = experiment: Bacterial killing efficiency of M^n+ and M^n+/CO3^2− (Example 5); assay type: cell-based; settings: iron 200 ppb, zinc 1 ppm, carbonate 20 ppm; input 1×10^5 CFU/mL

## [Cl][Ag] [AgCl]
[1]
  solubility in water: 1.9 µg/mL

## [Ag+] [Ag^+, silver ion]
E. coli [2]
  minimum concentration of silver necessary for antibacterial activity: 40-50 ppb
S. aureus (MTCC 96); silver ion up to 50 ppb, 1 h standing
  S. aureus concentration: ≥ 10^3 CFU/mL
E. coli [3]; sea salt 850 ppm
  output bacterial count: 2000 CFU/mL
E. coli [3]; sea salt 1100 ppm
  output bacterial count: 10,000 CFU/mL
E-coli [4]; lower silver concentrations (<50 ppb)
  bacterial count after storage: > 10^3 CFU/mL
E-coli [4]; silver ion 50 ppb
  bacterial count after storage: 0 CFU/mL
E. coli [5]; 50 ppb Ag^+
  humic acid concentration up to which bacterial count is handled: up to 5 ppm
E. coli [5]; humic acid 50 ppm, Ag^+ 50 ppb (composition with CO3^2− 20 ppm), input 1×10^5 CFU/mL
  output count: near to the input concentration
S. aureus
  time to inactivate S. aureus: over 24 h
MS2 bacteriophage [6]
  virus killing ability: unable to obtain complete virus killing ability
MS2 bacteriophage [7]; higher silver ion concentration without SiO3^2− or CO3^2−
  residual virus: residual virus concentration is present
MS2 bacteriophage [8]; Ag^+ 50 ppb alone
  time at which virus killing efficiency reaches a saturation value: 1 h
E. coli [9]; 50 ppb Ag^+, input 1×10^5 CFU/mL, 1 h
  residual viable bacterial count: 10-50 CFU/mL
E. coli [9]; silver ion below 40-50 ppb, synthetic challenge water
  antibacterial activity, log reduction: 2-3 log reduction

## O=C(O)O [CO3^2−, carbonate]
S. aureus (MTCC 96); 20 ppm CO3^2− alone
  viable bacteria count: > 10^5 CFU/mL
MS2 bacteriophage [7]; 20 ppm CO3^2−, no Ag^+, 1 h
  virus killing efficiency: 25%
MS2 bacteriophage [8]; 20 ppm CO3^2−, standing time 1 h
  virus killing efficiency: 20%
E. coli [9]; CO3^2− without Ag^+
  reduction in bacterial count by itself: doesn't provide a significant reduction in bacterial count

## [Fe+3] [Fe^3+]
E-coli [10]
  reduction in bacterial count: does not offer any reduction in bacterial count
